This is an account of results in ChEMBL document CHEMBL6096682, “Discovery of D-Ring-Contracted Artemisinin as a Potent Hydrophobic Tag for Targeted Protein Degradation” (J Med Chem, 2025).

Activity calls are given as the source filed them. The calls are words filed in the database; no cut-off is given here.

For test [1], the system named is MCF7. Put plainly: Antitumor activity against human MCF7 cells xenografted in Balb/c mouse assessed as inhibition of tumor growth at 5 mg/kg, iv administered every 3 days and measured for 21 days. In kind it is functional. Conditions: MCF7, 504 h, time 21 day, read-out: TGI. For orientation: A xenograft is tissue or cells of one species grown in another, often human tumour cells in immunodeficient mice.

For test [2], the system named is MCF7. Put plainly: Antiproliferative activity against human MCF7 cells assessed as reduction in cell viability incubated for 48 hrs by MTT assay. In kind it is functional, cell-based. Conditions: MCF7, 48 h.
In test [3] the test system is MCF7. Put plainly: Antiproliferative activity against human MCF7 cells assessed as reduction in cell viability incubated for 48 hrs by MTT assay relative to control. In kind it is functional. On the technique in general: Tetrazolium dyes change colour on reduction, which living cells bring about.
The target in test [4] is T1, Estrogen receptor (Homo sapiens) (UniProt P03372).
T1 sequence (whole entry): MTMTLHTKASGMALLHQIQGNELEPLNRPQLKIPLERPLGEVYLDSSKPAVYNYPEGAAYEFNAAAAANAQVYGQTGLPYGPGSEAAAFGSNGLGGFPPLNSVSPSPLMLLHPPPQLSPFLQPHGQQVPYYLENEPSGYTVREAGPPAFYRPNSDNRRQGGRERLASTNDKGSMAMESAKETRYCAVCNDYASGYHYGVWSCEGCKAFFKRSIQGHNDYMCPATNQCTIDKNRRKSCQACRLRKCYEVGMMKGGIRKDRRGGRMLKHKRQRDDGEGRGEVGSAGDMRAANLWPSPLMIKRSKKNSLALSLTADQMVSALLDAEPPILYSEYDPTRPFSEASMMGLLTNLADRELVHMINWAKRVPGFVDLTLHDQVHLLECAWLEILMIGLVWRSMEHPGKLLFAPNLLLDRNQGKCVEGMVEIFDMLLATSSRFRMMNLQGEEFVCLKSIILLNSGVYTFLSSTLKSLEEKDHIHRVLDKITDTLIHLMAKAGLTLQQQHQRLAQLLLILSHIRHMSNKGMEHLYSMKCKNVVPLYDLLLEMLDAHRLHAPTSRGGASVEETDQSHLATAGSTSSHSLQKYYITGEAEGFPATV
Put plainly: HyT degrader activity at ER-alpha in human MCF7 cells assessed as induction of ER-alpha degradation by measuring decrease in ER-alpha level at 10 uM incubated for 48 hrs followed by drug wash-out and measured after 24 hrs by western blot analysis. In kind it is cell-based. (In western blotting, separated proteins are transferred to a membrane and probed.)

The target in test [5] is T1, Estrogen receptor (Homo sapiens). Briefly: HyT degrader activity at ER-alpha in human MCF7 cells assessed as induction of ER-alpha degradation by measuring decrease in ER-alpha level at 10 uM incubated for 48 hrs by western blot analysis. Further details: scale not given: the % may be the effect or the level left. The test is classed as cell-based.
In test [6] the test system is MCF7. Put plainly: Antiproliferative activity against human MCF7 cells overexpressing ER-alpha Y537S mutant assessed as reduction in cell viability incubated for 48 hrs by MTT assay. The test is classed as functional, cell-based. To be noted: MCF7, 48 h.
In test [7] the test system is MCF7. Briefly: Antiproliferative activity against human MCF7 cells overexpressing EGFR assessed as reduction in cell viability incubated for 48 hrs by MTT assay. In kind it is functional, cell-based. Conditions: MCF7, 48 h.
Test [8] concerns MCF7. Put plainly: Antiproliferative activity against human MCF7 cells overexpressing ER-alpha Y537S mutant assessed as reduction in cell viability incubated for 48 hrs by MTT assay relative to control. In kind it is functional.
Test [9] concerns MCF7. Briefly: Antiproliferative activity against human MCF7 cells overexpressing EGFR assessed as reduction in cell viability incubated for 48 hrs by MTT assay relative to control. The test is classed as functional.
Test [10] concerns the target Cyclin-dependent kinase 6 (Homo sapiens) (UniProt Q00534). Put plainly: HyT degrader activity at CDK6 in human MCF7 cells assessed as induction of CDK6 degradation at 0.1 to 10 uM incubated for 24 hrs by immunoblot analysis. In kind it is cell-based. Conditions: dose 0.1-10 µM.
The target is the same in test [11]. Put plainly: HyT degrader activity at CDK6 in human MCF7 cells assessed as induction of CDK6 degradation at 10 uM incubated for 24 hrs by immunoblot analysis. The test is classed as cell-based.
Test [12] deals with T2, Protein deacetylase HDAC6 (Homo sapiens) (UniProt Q9UBN7).
T2 sequence (whole entry): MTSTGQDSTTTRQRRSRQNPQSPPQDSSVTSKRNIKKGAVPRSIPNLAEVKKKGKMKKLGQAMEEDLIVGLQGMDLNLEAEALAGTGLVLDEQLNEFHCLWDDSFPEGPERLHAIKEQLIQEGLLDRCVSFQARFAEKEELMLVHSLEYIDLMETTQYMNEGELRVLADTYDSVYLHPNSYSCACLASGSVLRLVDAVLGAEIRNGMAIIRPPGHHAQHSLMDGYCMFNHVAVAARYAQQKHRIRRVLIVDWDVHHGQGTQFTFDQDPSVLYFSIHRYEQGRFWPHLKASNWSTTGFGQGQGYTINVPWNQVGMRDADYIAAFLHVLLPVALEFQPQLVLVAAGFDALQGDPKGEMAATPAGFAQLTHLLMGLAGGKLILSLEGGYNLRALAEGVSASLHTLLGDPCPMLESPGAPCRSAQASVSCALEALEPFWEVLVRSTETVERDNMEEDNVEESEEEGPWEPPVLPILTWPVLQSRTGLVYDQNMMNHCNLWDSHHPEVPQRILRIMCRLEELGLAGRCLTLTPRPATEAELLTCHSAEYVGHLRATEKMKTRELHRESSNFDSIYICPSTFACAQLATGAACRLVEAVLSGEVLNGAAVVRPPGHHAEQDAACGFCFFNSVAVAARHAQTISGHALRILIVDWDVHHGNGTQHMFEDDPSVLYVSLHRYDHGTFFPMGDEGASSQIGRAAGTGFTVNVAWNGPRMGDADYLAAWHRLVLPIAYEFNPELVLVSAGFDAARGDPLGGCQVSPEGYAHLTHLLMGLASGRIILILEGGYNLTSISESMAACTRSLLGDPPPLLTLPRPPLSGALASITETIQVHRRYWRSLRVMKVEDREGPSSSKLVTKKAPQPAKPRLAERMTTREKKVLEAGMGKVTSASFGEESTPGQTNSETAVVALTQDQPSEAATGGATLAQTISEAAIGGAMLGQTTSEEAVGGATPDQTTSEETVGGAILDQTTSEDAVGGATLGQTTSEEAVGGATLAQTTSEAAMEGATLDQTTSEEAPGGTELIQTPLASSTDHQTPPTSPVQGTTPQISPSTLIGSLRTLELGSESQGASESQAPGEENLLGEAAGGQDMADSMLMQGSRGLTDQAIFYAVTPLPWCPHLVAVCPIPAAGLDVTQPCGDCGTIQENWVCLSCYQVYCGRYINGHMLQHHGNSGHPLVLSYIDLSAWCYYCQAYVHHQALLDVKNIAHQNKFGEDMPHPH
Briefly: HyT degrader activity at HDAC6 in human MCF7 cells assessed as induction of HDAC6 degradation by measuring decrease in HDAC6 level at 0.1 to 10 uM incubated for 24 hrs by immunoblot analysis. In kind it is cell-based. To be noted: dose 0.1-10 µM.

For test [13], the target named is T3, Histone deacetylase (Homo sapiens) (UniProt Q13547+O15379+Q9UBN7+Q92769+Q9UQL6+Q8WUI4+Q9BY41+Q96DB2+P56524+Q9UKV0+Q969S8). Briefly: HyT degrader activity at HDAC in human MCF7 cells assessed as induction of HDAC degradation by measuring increase in acetylated histone H3 level at 0.1 to 50 uM incubated for 24 hrs by immunoblot analysis. The test is classed as cell-based. Conditions: dose 0.1-50 µM.

Test [14] has as its target Histone deacetylase 1 (Homo sapiens) (UniProt Q13547). Briefly: HyT degrader activity at HDAC1 in human MCF7 cells assessed as induction of HDAC1 degradation by measuring decrease in HDAC1 level at 0.1 to 50 uM incubated for 24 hrs by immunoblot analysis. To be noted: dose 0.1-50 µM. In kind it is cell-based.
In test [15] the target is Histone deacetylase 2 (Homo sapiens) (UniProt Q92769). Put plainly: HyT degrader activity at HDAC2 in human MCF7 cells assessed as induction of HDAC2 degradation by measuring decrease in HDAC2 level at 0.1 to 50 uM incubated for 24 hrs by immunoblot analysis. To be noted: dose 0.1-50 µM. The test is classed as cell-based.
Test [16] concerns the target T3, Histone deacetylase (Homo sapiens). Briefly: HyT degrader activity at HDAC in human MCF7 cells assessed as induction of HDAC degradation by measuring increase in acetylated alpha-tubulin level at 0.1 to 50 uM incubated for 24 hrs by immunoblot analysis. The test is classed as cell-based. Conditions: dose 0.1-50 µM.
Test [17] has as its target Histone deacetylase 1 (Homo sapiens) (UniProt Q13547). Put plainly: HyT degrader activity at HDAC1 in human MCF7 cells assessed as induction of HDAC1 degradation at 10 uM incubated for 24 hrs by immunoblot analysis. The test is classed as cell-based.

Sequence of Histone deacetylase 1 (Homo sapiens) (Q13547 whole entry): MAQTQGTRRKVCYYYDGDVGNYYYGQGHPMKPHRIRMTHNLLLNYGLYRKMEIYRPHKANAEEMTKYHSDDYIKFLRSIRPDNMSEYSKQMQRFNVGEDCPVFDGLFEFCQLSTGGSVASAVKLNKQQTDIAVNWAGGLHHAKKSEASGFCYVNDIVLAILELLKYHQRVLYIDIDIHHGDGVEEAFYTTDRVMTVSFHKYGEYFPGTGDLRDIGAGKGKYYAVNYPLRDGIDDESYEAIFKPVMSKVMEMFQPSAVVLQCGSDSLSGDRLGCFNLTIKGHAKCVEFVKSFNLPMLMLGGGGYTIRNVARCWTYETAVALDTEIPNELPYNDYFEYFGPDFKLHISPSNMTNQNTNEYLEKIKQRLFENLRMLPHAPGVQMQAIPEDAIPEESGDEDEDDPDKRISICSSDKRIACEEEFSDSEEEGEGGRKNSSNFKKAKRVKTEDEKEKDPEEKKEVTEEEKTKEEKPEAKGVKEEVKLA
Sequence of Cyclin-dependent kinase 6 (Homo sapiens) (Q00534 whole entry): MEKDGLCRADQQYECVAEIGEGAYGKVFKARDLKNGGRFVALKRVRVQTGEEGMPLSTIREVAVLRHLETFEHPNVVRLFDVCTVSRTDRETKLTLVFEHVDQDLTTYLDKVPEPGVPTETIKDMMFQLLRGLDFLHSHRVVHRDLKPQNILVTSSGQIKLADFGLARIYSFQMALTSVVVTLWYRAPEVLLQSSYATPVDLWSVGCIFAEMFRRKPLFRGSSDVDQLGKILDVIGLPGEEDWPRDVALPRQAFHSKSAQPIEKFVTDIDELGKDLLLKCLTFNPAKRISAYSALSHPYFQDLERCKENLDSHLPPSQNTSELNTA
Sequence of Histone deacetylase 2 (Homo sapiens) (Q92769 whole entry): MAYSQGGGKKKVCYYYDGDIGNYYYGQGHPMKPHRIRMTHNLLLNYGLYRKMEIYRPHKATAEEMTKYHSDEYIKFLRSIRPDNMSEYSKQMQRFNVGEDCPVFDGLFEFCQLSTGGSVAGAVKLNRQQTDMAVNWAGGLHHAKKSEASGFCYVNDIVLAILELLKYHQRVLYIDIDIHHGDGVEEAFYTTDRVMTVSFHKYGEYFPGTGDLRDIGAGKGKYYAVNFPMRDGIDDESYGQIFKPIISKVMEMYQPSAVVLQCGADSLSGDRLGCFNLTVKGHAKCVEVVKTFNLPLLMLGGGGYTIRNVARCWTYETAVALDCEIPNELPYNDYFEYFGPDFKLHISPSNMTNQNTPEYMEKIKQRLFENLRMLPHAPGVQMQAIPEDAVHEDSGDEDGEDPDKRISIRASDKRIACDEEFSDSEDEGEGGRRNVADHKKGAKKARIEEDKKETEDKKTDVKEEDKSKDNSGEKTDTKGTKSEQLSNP

On to `O=C(c1ccc(OCCN2CCCCC2)cc1)c1c(-c2ccc(O)cc2)sc2cc(O)ccc12` [RALOXIFENE], for which, in the test with MCF7 [1], the inhibition in vivo at 5 mg/kg was 68.8%.
For the molecule `O=C(c1ccc(OCCCNC(=O)C23CC4CC(CC(C4)C2)C3)cc1)c1c(-c2ccc(O)cc2)sc2cc(O)ccc12`, the IC50 with MCF7 [2] was 9.54 µM; in the test with MCF7 [6], greater than 50 µM; with MCF7 [7] it was 16 µM. The “inhibition (INH)” value in the test with MCF7 [3] is recorded as 70.8%; in the test on MCF7 [8] it was 41.7%; in the test on MCF7 [9] it was 57.9%. The result in [4] was Active. The Activity in test [5] was 77.5%.
`CC(=O)c1c(C)c2cnc(NCCCNC(=O)[C@@]3(C)OC4O[C@@]5(C)CCC6[C@H](C)CCC3[C@@]46OO5)nc2n(C2CCCC2)c1=O` (single isomer, unassigned): the IC50 with MCF7 [2] is 5 µM. Further, the result in test [10] was Active. In addition, in test [11], the Activity is 73%.
For `C[C@@H]1CCC2[C@]34OO[C@](C)(CCC13)OC4O[C@]2(C)C(=O)NCCOc1ccc(C(=O)c2c(-c3ccc(O)cc3)sc3cc(O)ccc23)cc1` (single isomer, unassigned), the IC50 in the test on MCF7 [2] is greater than 100 µM. Also, the “inhibition (INH)” value in the test on MCF7 [3] was 42.6%.
Regarding `C[C@@H]1CCC2[C@]34OO[C@](C)(CCC13)OC4O[C@]2(C)C(=O)NCCCC(=O)Nc1ccc(NC(=O)CCCCCCC(=O)NO)cc1` (single isomer, unassigned), in the test with MCF7 [2], the IC50 was 5.26 µM. The result in test [12], in test [13], in test [14], in test [15] and in test [16] was Active. Besides, in [17], the Activity is 84%.
For the molecule `C[C@]12CC[C@@H]3c4ccc(O)cc4C[C@@H](CCCCCCCCC[S+]([O-])CCCC(F)(F)C(F)(F)F)[C@H]3[C@@H]1CC[C@@H]2O` (stereo partly specified) [FULVESTRANT], the inhibition in vivo at 5 mg/kg in the test with MCF7 [1] was 87%.
`C[C@@H]1CCC2[C@]34OO[C@](C)(CCC13)O[C@@H]4O[C@]2(C)C(=O)NCCCCCCOc1ccc(C(=O)c2c(-c3ccc(O)cc3)sc3cc(O)ccc23)cc1` (stereo partly specified): the IC50 with MCF7 [2] amounted to 45.7 µM. For the same molecule, in the test with MCF7 [3], the “inhibition (INH)” value is 57.1%.
The like results for `C[C@@H]1CCC2[C@]34OO[C@](C)(CCC13)O[C@@H]4O[C@]2(C)C(=O)NCCCCOc1ccc(C(=O)c2c(-c3ccc(O)cc3)sc3cc(O)ccc23)cc1` (stereo partly specified) were, in that order, 11.4 µM and 63.5%.

The IC50 is the concentration at which inhibition is half-maximal.
